biological target: T1, human β3 adrenergic receptor (Homo sapiens, UniProt P13945); experiment: whole cell receptor coupled c-AMP assay (Emax relative to isoproterenol); format: cell-based; settings: % intrinsic activity relative to isoproterenol maximal response; transfected CHO cells
T1 construct: expressed in transfected cells; host or cells: DXB-11 Chinese hamster ovary (CHO) cell line, stably transfected, phd expression vector
Excerpt: The genes encoding the human β1-adrenergic receptor (Frielle et al., Proc. Natl. Acad. Sci., 84:7920–7924, 1987), the human β2-adrenergic receptor (Kobika el al., Proc. Natl. Acad. Sci., 84:46–50, 1987, Emorine et al., Proc. Natl. Acad. Sci., 84:6995–6999, 1987) and the human β3 adrenergic receptor (Granneman et al., Molecular Pharmacology, 44(2):264–70, 1993) are individually subcloned into a phd expression vector (Grinnell et al., Bio/Technology, 5:1189–1192, 1987) and transfected into the DXB-11 Chinese hamster ovary (CHO) cell line by calcium phosphate precipitation methodology. The stably transfected cells are grown to 95% confluency in 95% Dulbecco's modified Eagles Medium (DMEM), 5% fetal bovine serum and 0.01% proline. Media is removed and the cells are washed with phosphate buffered (pH 7.4) saline (without magnesium and calcium). Cells are then lifted using an enzyme free cell dissociation solution (Specialty Media, Lavallette, N.J.) and pelleted by centrifugation.
Cells from each of the above cell lines are resuspended and added (20,000/well) to a 96-well plate. Cells are incubated at 37° C. with representative compounds of the invention for 20 minutes in buffer (Hank's balanced salt solution, 10 mM HEPES, 0.1% BSA, 1 mM L-ascorbic acid, 0.2% dimethyl sulfoxide, 1 mM 3-isobutyl-1-methylxanthine, pH 7.4). After halting the incubation with quench buffer (50 mM Na Acetate, 0.25% Triton X-100, pH 5.8), the c-AMP level is quantified by scintillation proximity assay (SPA) using a modification of the commercially available c-AMP kit (Amersham, Arlington Heights, Ill.) with rabbit anti-cAMP antibody (ICN Biomedicals, Aurora, Ohio) for the kit.
Sigmoidal dose response curves, from the whole cell receptor coupled c-AMP assay are fit to a four parameter logistic equation using non linear regression: y=(a–d)/(1+(Dose/c)^b)+d where a and d are responses at zero and maximal dose, b is the slope factor and c is the EC50 as previously described (DeLean et al., Am. J. Physiol., 235, E97–E102, 1978). EC50 is assessed as the concentration producing 50% of the maximum response to each agonist.
Isoproterenol is accepted in the art as a non-selective β3 agonist and is widely used as a comparator in evaluating the activity of compounds. See Trends in Pharm. Sci., 15:3, 1994. The % intrinsic activity (Emax) of representative compounds of the invention is assessed relative to isoproterenol by the compound's maximal response divided by the isoproterenol maximal response times 100.

T1 sequence (P13945 whole entry): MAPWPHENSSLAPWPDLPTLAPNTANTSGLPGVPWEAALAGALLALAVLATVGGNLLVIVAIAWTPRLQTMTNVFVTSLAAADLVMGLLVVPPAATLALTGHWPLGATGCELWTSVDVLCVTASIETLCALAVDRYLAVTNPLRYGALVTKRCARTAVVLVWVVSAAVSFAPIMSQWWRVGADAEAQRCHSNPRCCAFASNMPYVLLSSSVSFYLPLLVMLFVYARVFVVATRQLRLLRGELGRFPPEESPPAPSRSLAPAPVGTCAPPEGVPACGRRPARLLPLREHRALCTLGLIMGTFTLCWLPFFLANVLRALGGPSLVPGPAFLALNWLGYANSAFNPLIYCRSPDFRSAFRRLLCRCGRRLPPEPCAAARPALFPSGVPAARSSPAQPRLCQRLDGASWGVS

Emax | SMILES
84.9% | CC(C)(Cc1c[nH]c2c(OCC3=NCCS3)cccc12)NC[C@H](O)COc1cccc2c1C1(CCCC1)C(=O)N2 [Example 66]
73.3% | C[C@H](Cn1ccc2c(OCC(=O)O)cccc21)NC[C@H](O)COc1cccc2c1C1(CCCC1)C(=O)N2 [Example 68]
37.9% | CC(C)(Cc1c[nH]c2cccc(C(=O)O)c12)NC[C@H](O)COc1cccc2c1C1(CCCC1)C(=O)N2 [Example 69]
53.5% | CC(C)(Cc1c[nH]c2ccc(C(=O)O)cc12)NC[C@H](O)COc1cccc2c1C1(CCCC1)C(=O)N2 [Example 70]
59.5% | CC(C)(Cc1c[nH]c2c(C(=O)O)cccc12)NC[C@H](O)COc1cccc2c1C1(CCCC1)C(=O)N2 [Example 71]
56.2% | CC(C)(Cc1c[nH]c2cc(C(=O)O)ccc12)NC[C@H](O)COc1cccc2c1C1(CCCC1)C(=O)N2 [Example 72]
82.4% | CC(C)(Cc1c[nH]c2c(Oc3ccc(C(=O)O)cn3)cccc12)NC[C@H](O)COc1cccc2c1C1(CCCC1)C(=O)N2 [Example 73]
78.1% | CC(C)(Cc1c[nH]c2c(Oc3ccc(-c4nn[nH]n4)cn3)cccc12)NC[C@H](O)COc1cccc2c1C1(CCCC1)C(=O)N2 [Example 74]
80.1% | CC(C)(Cc1c[nH]c2c(Oc3ccc(C(N)=O)cn3)cccc12)NC[C@H](O)COc1cccc2c1C1(CCCC1)C(=O)N2 [Example 75]
80.1% | CC(C)(Cc1c[nH]c2c(Oc3ncccc3-c3nn[nH]n3)cccc12)NC[C@H](O)COc1cccc2c1C1(CCCC1)C(=O)N2 [Example 76]
93.5% | CC(C)(Cc1c[nH]c2c(-c3cccc(C(=O)O)c3)cccc12)NC[C@H](O)COc1cccc2c1C1(CCCC1)C(=O)N2 [Example 78]
75.1% | CC(C)(Cc1c[nH]c2c(-c3ccc(C(=O)O)s3)cccc12)NC[C@H](O)COc1cccc2c1C1(CCCC1)C(=O)N2 [Example 79]
77.2% | CC(C)(Cc1c[nH]c2c(CCC(=O)O)cccc12)NC[C@H](O)COc1cccc2c1C1(CCCC1)C(=O)N2 [Example 80]
77.4% | CC(C)(Cc1c[nH]c2c(CCc3nnn[nH]3)cccc12)NC[C@H](O)COc1cccc2c1C1(CCCC1)C(=O)N2 [Example 81]
72.7% | CC(C)(Cc1c[nH]c2cc(CCc3nnn[nH]3)ccc12)NC[C@H](O)COc1cccc2c1C1(CCCC1)C(=O)N2 [Example 82]
79.3% | CC(C)(Cc1c[nH]c2c(CCc3cnccn3)cccc12)NC[C@H](O)COc1cccc2c1C1(CCCC1)C(=O)N2 [Example 83]
78.5% | CC(C)(Cc1c[nH]c2c(CCc3ccc(S(N)(=O)=O)cc3)cccc12)NC[C@H](O)COc1cccc2c1C1(CCCC1)C(=O)N2 [Example 84]
48.3% | CC(C)(Cc1c[nH]c2cccc(C(N)=O)c12)NC[C@H](O)COc1cccc2c1C1(CCCC1)C(=O)N2 [Example 85]

Reference: US7087635B2, “3-substituted oxindole β3 agonists” (Eli Lilly and Company, priority 2001, dated 2006)
